Measurements published in ChEMBL document CHEMBL6182910, “Design, Synthesis, and Biological Evaluation of 4-(Difluoromethyl)-1H-imidazole-5-carboxylic Acids/4-(3-Cyanophenoxy)pyrimidine-5-carboxylic Acids as P2Y1 Receptor Antagonists for Ischemic Stroke Treatment” (J Med Chem, 2025).

Experiments:
Oryctolagus cuniculus = species on record: Oryctolagus cuniculus; test: Antagonist activity at P2Y12 receptor in platelet-rich plasma of male Japanese white rabbit assessed as inhibition of VASP phosphorylation at Ser239 at 30 uM pretreated for 10 mins followed by PGE1/ADP addition measured after 10 mins by ELISA relative to control; format: cell-free; settings: time 20.0 min
Plasma [1] = test: Anti-platelet aggregation in platelet-rich plasma of male human assessed as inhibition of ADP-induced platelet aggregation preincubated for 15 mins followed by ADP addition measured up to 10 mins by Born's turbidometric method; format: functional, cell-free
Plasma [2] = test: Anti-platelet aggregation in platelet-rich plasma of male male Sprague-Dawley rat assessed as inhibition of ADP-induced platelet aggregation preincubated for 15 mins followed by ADP addition measured up to 10 mins by Born's turbidometric method; format: functional, cell-free
[3] = molecular target: P2Y purinoceptor 12 (Rattus norvegicus) (UniProt Q9EPX4); test: Antagonist activity at P2Y12 receptor in platelet-rich plasma of male Sprague-Dawley rat assessed as inhibition of VASP phosphorylation at Ser239 at 30 uM pretreated for 10 mins followed by PGE1/ADP addition measured after 10 mins by ELISA relative to control; format: cell-free; settings: time 20.0 min
Sequence of P2Y purinoceptor 12 (Rattus norvegicus) (Q9EPX4 whole entry): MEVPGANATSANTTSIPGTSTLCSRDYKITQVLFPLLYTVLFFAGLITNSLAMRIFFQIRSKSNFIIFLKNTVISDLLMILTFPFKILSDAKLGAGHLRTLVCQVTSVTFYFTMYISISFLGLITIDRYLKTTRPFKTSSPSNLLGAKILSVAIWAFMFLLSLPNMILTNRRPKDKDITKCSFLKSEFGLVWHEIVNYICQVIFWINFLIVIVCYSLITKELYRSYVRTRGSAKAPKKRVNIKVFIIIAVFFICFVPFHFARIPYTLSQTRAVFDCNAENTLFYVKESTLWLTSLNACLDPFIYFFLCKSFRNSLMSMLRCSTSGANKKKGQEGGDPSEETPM

Rattus norvegicus [4] = test: Neuroprotective activity in MCAO-induced brain damage Sprague-Dawley rat model assessed as reduction in brain water content at 10 mg/kg, iv administered immediately after arterial occlusion measured after 24 hrs; format: functional, organism-based
Rattus norvegicus [5] = test: Anti-platelet aggregation in Sprague-Dawley rat assessed as inhibition of ADP-induced platelet aggregation at 10 mg/kg, po measured for 15 mins in presence of 5 uM ADP by cell counter analysis relative to control; format: functional; settings: 0.25 h
P2Y purinoceptor 1 = P2Y purinoceptor 1 (Rattus norvegicus, UniProt P49651); test: Antagonist activity at P2Y1 receptor in platelet-rich plasma of rat assessed as inhibition of ADP-induced cytosolic Ca2+ level pretreated for 5 mins followed by ADP addition by FLUO-4 AM dye based analysis; format: functional, cell-free
Sequence of P2Y purinoceptor 1 (P49651 whole entry): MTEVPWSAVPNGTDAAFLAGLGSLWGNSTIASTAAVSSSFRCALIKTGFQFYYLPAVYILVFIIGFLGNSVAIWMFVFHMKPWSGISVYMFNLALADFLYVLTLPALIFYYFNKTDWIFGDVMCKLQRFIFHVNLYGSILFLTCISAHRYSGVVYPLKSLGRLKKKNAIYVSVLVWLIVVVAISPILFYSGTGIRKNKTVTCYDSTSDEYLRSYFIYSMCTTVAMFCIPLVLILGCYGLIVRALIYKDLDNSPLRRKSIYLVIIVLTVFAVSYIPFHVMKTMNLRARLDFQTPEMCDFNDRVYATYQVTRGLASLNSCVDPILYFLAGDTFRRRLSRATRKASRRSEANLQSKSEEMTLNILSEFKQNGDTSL

[6] = Antagonist activity at P2Y1 receptor in platelet-rich plasma of male Japanese white rabbit assessed as inhibition of ADP-induced cytosolic Ca2+ level pretreated for 5 mins followed by ADP addition by FLUO-4 AM dye based analysis; format: cell-free; settings: Oryctolagus cuniculus
Plasma [7] = test: Anti-platelet aggregation in platelet-rich plasma of male Japanese white rabbit assessed as inhibition of ADP-induced platelet aggregation preincubated for 15 mins followed by ADP addition measured up to 10 mins by Born's turbidometric method; format: functional, cell-free; settings: Oryctolagus cuniculus
HT-22 = test: Neuroprotective activity against H2O2-induced oxidative stress in mouse HT-22 cells assessed as cell viability at 10 uM preincubated for 2 hrs followed by H2O2 addition measured after 24 hrs by MTT assay (reference value: 55 +/- 4.6 %); format: functional; settings: time 26 hrs, read-out: Activity
Rattus norvegicus [8] = test: Anti-platelet aggregation in Sprague-Dawley rat assessed as inhibition of ADP-induced platelet aggregation at 10 mg/kg, po measured for 15 mins in presence of 2.5 uM ADP by cell counter analysis relative to control; format: functional; settings: 0.25 h
Rattus norvegicus [9] = test: Neuroprotective activity in MCAO-induced brain damage Sprague-Dawley rat model assessed as plasma MDA level at 10 mg/kg, iv administered immediately after arterial occlusion measured after 24 hrs (reference value: 51.7 %); format: functional
Rattus norvegicus [10] = test: Neuroprotective activity in MCAO-induced brain damage Sprague-Dawley rat model assessed as plasma GSH-px level at 10 mg/kg, iv administered immediately after arterial occlusion measured after 24 hrs; format: functional
Rattus norvegicus [11] = test: Anti-platelet aggregation in Sprague-Dawley rat assessed as inhibition of ADP-induced platelet aggregation at 10 mg/kg, po measured for 15 mins in presence of 10 uM ADP by cell counter analysis relative to control; format: functional; settings: 0.25 h
Rattus norvegicus [12] = test: Neuroprotective activity in MCAO-induced brain damage Sprague-Dawley rat model assessed as reduction in brain infarction size at 10 mg/kg, iv administered immediately after arterial occlusion measured after 24 hrs by TTC staining based analysis relative to control; format: functional; parameters: scale not given: the % may be the effect or the level left
Rattus norvegicus [13] = test: Neuroprotective activity in MCAO-induced brain damage Sprague-Dawley rat model assessed as plasma MDA level at 6 mg/kg, iv administered immediately after arterial occlusion measured after 24 hrs (reference value: 51.7 %); format: functional
Rattus norvegicus [14] = test: Neuroprotective activity in MCAO-induced brain damage Sprague-Dawley rat model assessed as reduction in brain water content at 6 mg/kg, iv administered immediately after arterial occlusion measured after 24 hrs; format: functional, organism-based
Rattus norvegicus [15] = test: Anti-platelet aggregation in Sprague-Dawley rat assessed as inhibition of ADP-induced platelet aggregation at 6 mg/kg, po measured for 15 mins in presence of 10 uM ADP by cell counter analysis relative to control; format: functional; settings: 0.25 h
Rattus norvegicus [16] = test: Anti-platelet aggregation in Sprague-Dawley rat assessed as inhibition of ADP-induced platelet aggregation at 6 mg/kg, po measured for 15 mins in presence of 5 uM ADP by cell counter analysis relative to control; format: functional; settings: 0.25 h
Rattus norvegicus [17] = test: Anti-platelet aggregation in Sprague-Dawley rat assessed as inhibition of ADP-induced platelet aggregation at 6 mg/kg, po measured for 15 mins in presence of 2.5 uM ADP by cell counter analysis relative to control; format: functional; settings: 0.25 h
[18] = Antioxidant activity assessed as inhibition of DPPH radical scavenging activity incubated for 30 mins under dark condition by absorbance based method; format: functional
Rattus norvegicus [19] = test: Neuroprotective activity in MCAO-induced brain damage Sprague-Dawley rat model assessed as plasma GSH-px level at 6 mg/kg, iv administered immediately after arterial occlusion measured after 24 hrs; format: functional
Rattus norvegicus [20] = test: Neuroprotective activity in MCAO-induced brain damage Sprague-Dawley rat model assessed as reduction in brain infarction size at 6 mg/kg, iv administered immediately after arterial occlusion measured after 24 hrs by TTC staining based analysis relative to control; format: functional; parameters: scale not given: the % may be the effect or the level left
P2Y purinoceptor 12 = P2Y purinoceptor 12 (Rattus norvegicus, UniProt Q9EPX4); test: Antagonist activity at P2Y12 receptor in platelet-rich plasma of male Sprague-Dawley rat assessed as inhibition of VASP phosphorylation at Ser239 pretreated for 10 mins followed by PGE1/ADP addition measured after 10 mins by ELISA; format: cell-free
Sequence of P2Y purinoceptor 12 (Q9EPX4 whole entry): as the sequence (Q9EPX4 whole entry) above

[21] = Antagonist activity at P2Y12 receptor in platelet-rich plasma of male Japanese white rabbit assessed as inhibition of VASP phosphorylation at Ser239 pretreated for 10 mins followed by PGE1/ADP addition measured after 10 mins by ELISA; format: cell-free; settings: Oryctolagus cuniculus

Row | Structure (SMILES) | inhibition (Oryctolagus cuniculus) | IC50 (Plasma [1]) | IC50 (Plasma [2]) | Activity (Rattus norvegicus [4]) | inhibition in vivo at 10 mg/kg (Rattus norvegicus [5]) | IC50 (P2Y purinoceptor 1) | IC50 [6] | IC50 (Plasma [7]) | viability at 10 µM (HT-22) | inhibition in vivo at 10 mg/kg (Rattus norvegicus [8]) | Activity (Rattus norvegicus [9]) | Activity (Rattus norvegicus [10]) | inhibition in vivo at 10 mg/kg (Rattus norvegicus [11]) | also measured
1 | CC(C)(C)c1ccccc1Oc1ncccc1NC(=O)Nc1ccc(OC(F)(F)F)cc1 | 30.3% | 3.4 µM | 3.31 µM | Active; Water Content Did Not Return To Blank Level | 64.6% | 2.66 µM | 2.5 µM | 4.42 µM | 82.6% | 65.9% | 44.1% | 489.1 U/ml | 34.4% | inhibition [3]: 37.6%
2 | Cc1nc(-c2cccc(C#N)c2)n(OCc2ccc(C#N)cc2)c1C(=O)O | 27.9% | 4.24 µM | 3.84 µM | Active; Water Content Did Not Return To Blank Level | 35.1% | 2.95 µM | 4.07 µM | 3.5 µM | 81.3% | 34.9% | 48.8% | 677.6 U/ml | 19.1% | Activity (Rattus norvegicus [12]): 33.6%; inhibition ([3]; filed as antagonist): 40.8%
3 | CC1=NN(c2ccccc2)C(=O)C1 [EDARAVONE] |  |  |  |  |  |  |  |  |  |  |  |  |  | Activity (Rattus norvegicus [13]): 31%; Activity (Rattus norvegicus [14]): Active; Water Content Did Not Return To Blank Level; inhibition in vivo at 6 mg/kg (Rattus norvegicus [15]): 29.4%; inhibition in vivo at 6 mg/kg (Rattus norvegicus [16]): 48.5%; inhibition in vivo at 6 mg/kg (Rattus norvegicus [17]): 55.4%; IC50 [18]: 23.6 µM; Activity (Rattus norvegicus [19]): 579.3 U/ml; Activity (Rattus norvegicus [20]): 35.7%
4 | CCCSc1nc(N[C@@H]2C[C@H]2c2ccc(F)c(F)c2)c2nnn([C@@H]3C[C@H](OCCO)[C@@H](O)[C@H]3O)c2n1 [TICAGRELOR] |  | 0.69 µM | 0.56 µM |  | 73.7% |  |  | 0.5 µM | 76% | 71.8% |  |  | 77.7% | IC50 (P2Y purinoceptor 12): 2.11 µM; IC50 [21]: 2.89 µM
